Where two headings read alike, the source gives them in different places.
Experiments:
[1] = test system: pressor response to exogenous angiotensin II; experiment: inhibition of pressor response to angiotensin II in conscious rats; type: in vivo; settings: Rattus norvegicus, dose producing 50% inhibition of the control response to angiotensin II, read-out: IC50 (the source's name)
Protocol: (§1) Angiotensin II antagonist activity of the compounds of Formula (I) is assessed by in vitro and in vivo methods. In vitro antagonist activity is determined by the ability of the compounds to compete with ^125I-angiotensin II for binding to vascular angiotensin It receptors and by their ability to antagonize the contractile response to angiotensin II in the isolated rabbit aorta. In vivo activity is evaluated by the efficacy of the compounds to inhibit the pressor response to exogenous angiotensin II in conscious rats and to lower blood pressure in a rat model of […] hypertension.
Rats are prepared with indwelling femoral arterial and venous catheters and a stomach tube (Gellai et al., Kidney Int. 15:419, 1979). Two to three days following surgery the rats are placed in a restrainer and blood pressure is continuously monitored from the arterial catheter with a pressure transducer and recorded on a polygraph. The change in mean arterial pressure in response to intravenous injections of […] angiotensin II is compared at various time points prior to and following the administration of the compounds intravenously or orally at doses of 0.1 to 300 mg/kg. The dose of compound needed to produce 50% inhibition of the control response to angiotensin II (IC50) is used to estimate the potency of the compounds.

[2] = test system: conscious rats made renin-dependent hypertensive; experiment: antihypertensive activity in renal artery ligated (renin-dependent hypertensive) rats; type: in vivo; settings: dose needed to reduce mean arterial pressure by 30 mm Hg
Protocol: as §1
The antihypertensive activity of the compounds is measured by their ability to reduce mean arterial pressure in conscious rats made renin-dependent hypertensive by ligation of the left renal artery (Cangiano et al., J. Pharmacol. Exp. Ther. 208:310, 1979). Renal artery ligated rats are prepared with indwelling catheters as described above. Seven to eight days following renal artery ligation, the time at which plasma renin levels are highest, the conscious rats are placed in restrainers and mean arterial pressure is continuously recorded prior to and following the administration of the compounds intravenously or orally. The dose of compound needed to reduce mean arterial pressure by 30 mm Hg (IC50) is used as an estimate of potency.

Compound: CCCCc1ncc(/C=C(\Cc2cccs2)C(=O)O)n1Cc1ccccc1Cl [Example 1, (E)-3-[2-n-Butyl-1-{(2-chlorophenyl)methyl}-1H-imidazol-5-yl]-2-(2-thienyl)methyl-2-propenoic Acid]
- ED50 ([1]; iv, i.v.): 3.6 mg/kg
- ED50 ([1]; po, orally): 44 mg/kg
- ED (30 mm Hg) ([2]; Rattus norvegicus, po, orally, read-out: IC50): 8 mg/kg
- IC50 ([2]; i.v.): 1.80 mg/kg

From patent EP0955294B1, “Imidazolyl-alkenoic acid” (SMITHKLINE BEECHAM CORPORATION, priority 1989, dated 1990)
